Reference: patent US5854081A, “Stable expression of human A2B adenosine receptors, and assays employing the same” (The University of Patent Foundation, priority 1996, dated 1998)
Where two headings read alike, the source gives them in different places.

Legend:
[1] = tested on: A3 AR; assay: A3 AR selectivity of radioligand; format: binding
Excerpt: These receptors can be labeled nonselectively by agonist radioligands that also label A1 AR.

[2] = target: rat striatal A2A receptors; conditions: cited from earlier work
[3] = tested on: untransfected CHO-K1 cells; assay: Cyclic AMP levels in untransfected CHO-K1 cells; format: cell-based; conditions: concentrations up to 1 μM
Method: (§3) CHO-K1 cells were incubated without or with 100 mg/mL pertussis toxin. […] Five-hundred microliters of the supernatants were removed, acetylated, and assayed for cyclic AMP by automated radioimmunoassay.

[4] = target: T1, recombinant human native-A1 adenosine receptor (Homo sapiens, UniProt P30542); assay: Competition for radioligand binding, native-A1; parameters: expressed in transfected cells; conditions: competition with 1 nM ^125 I-ABA
T1 sequence (P30542 1-326): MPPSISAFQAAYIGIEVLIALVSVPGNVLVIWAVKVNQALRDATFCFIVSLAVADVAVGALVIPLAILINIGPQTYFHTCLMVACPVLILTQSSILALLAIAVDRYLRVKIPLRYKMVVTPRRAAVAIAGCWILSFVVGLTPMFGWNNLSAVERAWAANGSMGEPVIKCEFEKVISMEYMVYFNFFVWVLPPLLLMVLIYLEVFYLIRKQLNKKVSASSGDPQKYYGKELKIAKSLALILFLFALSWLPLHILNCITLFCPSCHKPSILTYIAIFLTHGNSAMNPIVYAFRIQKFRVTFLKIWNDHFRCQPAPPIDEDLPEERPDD
Method: (§1) The experiments were performed in triplicate with 10 μg membrane protein in a total volume of 0.1 mL with 0.5 U/mL adenosine deaminase, with and without 5 mM MgCl2 for agonist and antagonist binding, respectively. […] Bmax and KD were calculated by nonlinear least squares interpolation for single or two-site binding models. K1 values for different compounds were derived from IC50 values. Data from replicate experiments were tabulated as means ± SEM.
(§2) Twelve compounds were evaluated to determine their potencies to compete for radioligand binding to native- and H/F-A1 or A2A receptors.

[5] = tested on: H/F-A1 adenosine receptors; assay: Inhibition of cyclic AMP accumulation, CHO-K1 cells with H/F-A1; format: cell-based, human
Method: as §3

[6] = target: T2, recombinant human H/F-A1 adenosine receptor (Homo sapiens, UniProt P30542); assay: Competition for radioligand binding, H/F-A1; conditions: competition with 1 nM ^125 I-ABA
T2 construct: expressed in transfected cells
T2 sequence (P30542 with tags, fused parts or gaps): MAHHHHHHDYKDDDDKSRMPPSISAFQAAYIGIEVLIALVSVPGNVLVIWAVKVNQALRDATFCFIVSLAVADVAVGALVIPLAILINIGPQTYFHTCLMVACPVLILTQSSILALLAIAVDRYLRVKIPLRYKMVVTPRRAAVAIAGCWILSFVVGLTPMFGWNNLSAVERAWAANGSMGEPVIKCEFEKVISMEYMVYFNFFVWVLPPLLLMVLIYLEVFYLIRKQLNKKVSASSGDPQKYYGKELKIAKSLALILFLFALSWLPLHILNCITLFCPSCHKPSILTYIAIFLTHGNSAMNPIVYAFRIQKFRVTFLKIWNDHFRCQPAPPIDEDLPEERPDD
Method: as §1, §2

[7] = Block of ^125 I-ABA binding to lung membranes
[8] = target: T1, recombinant human native-A1 adenosine receptor; assay: Saturation radioligand binding, native-A1 (CHO-K1 membranes)
[9] = target: T2, recombinant human H/F-A1 adenosine receptor; assay: Saturation radioligand binding, H/F-A1 (CHO-K1 membranes)
[10] = target: T3, A2B receptors (Homo sapiens, UniProt P29275); assay: Inhibition of NECA-stimulated cyclic AMP accumulation in A2B transfected HEK-293 cells (Schild analysis); format: cell-based; conditions: read-out: pA2 (antagonism, Schild analysis) (converted)
T3 construct: expressed in transfected cells; host or cells: HEK-293
T3 sequence (P29275 1-332): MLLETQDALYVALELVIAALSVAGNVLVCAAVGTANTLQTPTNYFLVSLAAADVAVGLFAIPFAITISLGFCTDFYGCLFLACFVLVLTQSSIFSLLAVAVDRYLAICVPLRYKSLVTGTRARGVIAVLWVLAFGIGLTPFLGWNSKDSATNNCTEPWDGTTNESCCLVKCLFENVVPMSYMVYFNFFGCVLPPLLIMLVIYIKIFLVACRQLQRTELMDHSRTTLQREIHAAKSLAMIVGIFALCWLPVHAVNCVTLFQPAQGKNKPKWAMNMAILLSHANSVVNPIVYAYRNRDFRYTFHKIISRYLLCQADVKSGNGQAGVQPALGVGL
Excerpt: The radioligands used to label the A1 and A2A receptors are commonly used and are commercially available. However, there are no reports in the literature of radioligands useful for detecting A2B receptors. […] Based on this observation [^3 H]DPX was custom triiated by NEN.

[11] = target: recombinant human native-A2A adenosine receptor (Homo sapiens, UniProt P29274); assay: Competition for radioligand binding, native-A2A
[12] = target: recombinant human H/F-A2A adenosine receptor (Homo sapiens, UniProt P29274); assay: Competition for radioligand binding, H/F-A2A
[13] = tested on: sheep A3AR
[14] = tested on: rat A3AR
[15] = target: T4, A2B adenosine receptors (Homo sapiens, UniProt P29275); assay: A2B radioligand binding assay; conditions: FIG. 6
T4 construct: made in house
T4 sequence (P29275 1-332): T3 sequence (P29275 1-332)

[16] = tested on: A3 AR; assay: Activation of A3 AR; conditions: >μM levels
[17] = tested on: native A2A receptors; assay: Effect of GTPγS on agonist radioligand binding to native A2A; parameters: species or system human; conditions: Sf9 cell membranes
[18] = tested on: H/F-A1 receptors
[19] = ^125 I-ABA: high affinity sites
[20] = competition with 70 nM [^3 H]NECA
[21] = read-out: K1, competition with 70 nM [^3 H]NECA

Sequence of recombinant human H/F-A2A adenosine receptor (P29274 with tags, fused parts or gaps): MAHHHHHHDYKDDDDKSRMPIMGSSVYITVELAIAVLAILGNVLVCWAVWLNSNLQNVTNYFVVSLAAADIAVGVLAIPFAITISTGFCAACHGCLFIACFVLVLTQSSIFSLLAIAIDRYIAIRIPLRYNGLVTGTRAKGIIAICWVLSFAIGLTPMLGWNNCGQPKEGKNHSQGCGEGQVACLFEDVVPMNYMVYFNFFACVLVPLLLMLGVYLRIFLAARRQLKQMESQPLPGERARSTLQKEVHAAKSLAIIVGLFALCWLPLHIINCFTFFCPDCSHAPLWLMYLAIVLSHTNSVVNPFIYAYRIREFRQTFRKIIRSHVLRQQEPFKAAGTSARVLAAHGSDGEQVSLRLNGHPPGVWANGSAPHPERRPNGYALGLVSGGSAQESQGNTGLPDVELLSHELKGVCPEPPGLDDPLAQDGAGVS
Sequence of recombinant human native-A2A adenosine receptor (P29274 whole entry): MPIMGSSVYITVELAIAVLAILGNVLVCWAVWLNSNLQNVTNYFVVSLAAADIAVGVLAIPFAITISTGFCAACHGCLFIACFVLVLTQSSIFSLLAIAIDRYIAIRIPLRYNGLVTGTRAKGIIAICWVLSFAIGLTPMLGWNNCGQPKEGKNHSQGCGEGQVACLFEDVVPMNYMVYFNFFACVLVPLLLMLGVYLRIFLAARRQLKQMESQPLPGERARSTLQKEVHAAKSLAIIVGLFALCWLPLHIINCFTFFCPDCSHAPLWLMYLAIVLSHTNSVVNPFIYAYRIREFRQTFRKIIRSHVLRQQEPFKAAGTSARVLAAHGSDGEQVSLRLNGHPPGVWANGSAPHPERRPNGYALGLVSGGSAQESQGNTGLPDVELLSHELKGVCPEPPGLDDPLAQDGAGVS

## CCCn1c(=O)c2[nH]c(-c3ccc(OCC(=O)O)cc3)nc2n(Cc2ccc(N)c([125I])c2)c1=O [^125 I-ABOPX]
[1]
  selectivity of radioligand: A3 AR-selective

## CCNC(=O)[C@H]1O[C@@H](n2cnc3c(N)nc(NCCc4ccc(CCC(=O)O)cc4)nc32)[C@H](O)[C@@H]1O [[^3 H]CGS21680]
[2]; G protein coupled rat striatal A2A receptors
  Kd: 3.9 nM
[2]; G protein uncoupled rat striatal A2A receptors
  Kd: 51 nM

## OC[C@H]1O[C@@H](n2cnc3c(NC4CCCC4)ncnc32)[C@H](O)[C@@H]1O [CPA, N^6 -cyclopentyladenosine]
[3]
  effect on cyclic AMP levels: no effect
[4]
  NH (Hill coefficient): 0.93 ± 0.16
[5]
  inhibition of cyclic AMP accumulation: potently inhibited
[5]; preincubated with pertussis toxin
  inhibition of cyclic AMP accumulation after pertussis toxin: abolished
[6]
  NH (Hill coefficient): 0.79

## Cn1c(=O)c2[nH]c(-c3ccc(S(=O)(=O)O)cc3)nc2n(C)c1=O [8-SPT, 8-P-sulfophenyltheophylline]
[4]
  NH (Hill coefficient): 0.87 ± 0.05
[6]
  NH (Hill coefficient): 0.84

## CC(C)N(C)c1nc2c(N[C@@H]3CC4CC3CC4O)ncnc2n1C (stereo partly shown) [WRC-0571]
[7]; 1 μM
  block of ^125 I-ABA binding to lung membranes: not blocked

## Nc1ccc(CNc2ncnc3c2ncn3[C@@H]2O[C@H](CO)[C@@H](O)[C@H]2O)cc1I [^125 I-ABA]
[8]; [19]
  Kd: 102 ± 0.03 nM
[9]; [19]
  Kd: 0.98 ± 0.16 nM

## CCn1c(=O)c2[nH]c(-c3ccccc3)nc2n(CC)c1=O [1,3-diethyl-8-phenylxanthine (DPX), 1,3-diethyl-8-phenylxanthine]
[10]
  Kb: 30 nM

## CCCn1c(=O)c2nc(-c3ccc(OCC(=O)O)cc3)[nH]c2n(Cc2ccc(N)c(I)c2)c1=O [1ABOPX, 3-iodoaminobenzyl-1-propyl-8-p-(oxyacetate)-phenylxanthine]
[11]; [20]
  NH (Hill coefficient): 0.84 ± 0.17
[11]; [21]
  Ki: 23.7 ± 7.5 nM
[12]; [20]
  NH (Hill coefficient): 0.94 ± 0.14
[12]; [21]
  Ki: 22 ± 3.6 nM

## Nc1ccc(CNc2ncnc3c2ncn3[C@@H]2O[C@H](CO)[C@@H](O)[C@H]2O)cc1[125I] [^125 I-ABA]
[8]
  Bmax: 3.5 ± 0.8 pmol/mg protein
[9]
  Bmax: 3.3 ± 0.5 pmol/mg protein

## Cn1c(=O)c2[nH]cnc2n(C)c1=O [theophylline]
[13]
  affinity for A3 AR: very low affinity
[14]
  affinity for A3 AR: very low affinity

## CCn1c(=O)c2[nH]c(-c3ccccc3)nc2n(CC)c1=O [[^3 H]DPX]
[15]
  detection of A2B receptors by radioligand binding: first successful detection of A2B adenosine receptors by radioligand binding

## CNC(=O)[C@H]1O[C@@H](n2cnc3c(NCc4cccc(I)c4)ncnc32)[C@H](O)[C@@H]1O [IB-MECA]
[7]; concentration not given
  block of ^125 I-ABA binding to lung membranes: blocked

## CCCn1c(=O)c2[nH]c(-c3ccc(OCC(=O)NCCN)cc3)nc2n(CCC)c1=O [XAC, xanthine amino congenen]
[4]
  NH (Hill coefficient): 1.12 ± 0.11
[6]
  NH (Hill coefficient): 0.96

## CCNC(=O)[C@H]1O[C@@H](n2cnc3c(N)nc(NCCc4ccc(CCC(=O)O)cc4)nc32)[C@H](O)[C@@H]1O [CGS21680, 2-(r-(s-carboxyethyl)phen-ethylamino)-5'-N-ethylcarboxamidondenosine]
[16]
  activation of A3 AR: activate A3 AR

## Nc1nc2c(ncn2[C@@H]2O[C@H](COP(=O)(O)OP(=O)(O)OP(O)(O)=S)[C@@H](O)[C@H]2O)c(=O)[nH]1 [GTPγS]
[17]
  reduction of [^3 H]CGS21680 / [^3 H]NECA binding by GTPγS: reduced only slightly
[18]
  reduction in number of high affinity agonist (^125 I-ABA) binding sites by GTPγS: large reduction

## CCNC(=O)[C@H]1O[C@@H](n2cnc3c(N)ncnc32)[C@H](O)[C@@H]1O [NECA, 5'-N-ethylcarboxamidondenosine]
[4]
  NH (Hill coefficient): 0.95 ± 0.09
[6]
  NH (Hill coefficient): 0.97
